Like-named read-outs stand apart in the source and are kept apart here.
Assays:
[1] = test system: HCT 116 human colon carcinoma cells; test: Antiproliferative activity against HCT 116 human colon carcinoma cells (XTT); format: cell-based
Description: HCT 116 cells (ATCC No.: CCL-247) were placed on a 96-well microtiter plate (Nunc, 167008) at a density of 1×10^3 cells/well. The plate was incubated in a 5% CO2 incubator at 37° C. for 24 hours, and then to the plate was added test compounds diluted stepwise to 100 μL/well in total, and the plate was further incubated in a 5% CO2 incubator at 37° C. for 72 hours. To the culture medium, the XTT (sodium 3′-[1-(phenylaminocarbonyl)-3,4-tetrazolium]-bis(4-methoxy-6-nitro)benzenesulfonic acid hydrate) labeling mixture (Roche Diagnostics, 1465015) was dispensed in 50 μL/well portions, then the plate was incubated in a 5% CO2 incubator at 37° C. for 1 hour, and the absorbance was measured at 490 nm and 655 nm with a microplate spectrophotometer (Bio-Rad, Model 550). The inhibitory activity against cell proliferation was shown as GI50, a concentration of compound at which induces 50% inhibition of cell proliferation.
GI50 calculation method: The value (difference in absorbance) was calculated by subtracting the absorbance at 655 nm from the absorbance at 490 nm of each well. The difference in absorbance obtained from the cells untreated with a test compound was defined as 100%, and compared with the difference in absorbance obtained from the cells treated with the solution of the compound in the known concentration, and thereby the concentration of the compound of 50% inhibition against cell proliferation was calculated to obtain GI50.

[2] = target: T1, recombinant human Eg5 motor domain protein (Homo sapiens, UniProt P52732); test: Eg5 enzyme inhibition test (2), ATPase activity; format: biochemical; conditions: 30° C. for 30 minutes, concentration-dependent inhibition
T1 construct: A plasmid expressing the motor domain of human Eg5 was constructed; made in house; host or cells: Escherichia coli BL21 (DE3)
T1 sequence (P52732 18-359 limits assumed): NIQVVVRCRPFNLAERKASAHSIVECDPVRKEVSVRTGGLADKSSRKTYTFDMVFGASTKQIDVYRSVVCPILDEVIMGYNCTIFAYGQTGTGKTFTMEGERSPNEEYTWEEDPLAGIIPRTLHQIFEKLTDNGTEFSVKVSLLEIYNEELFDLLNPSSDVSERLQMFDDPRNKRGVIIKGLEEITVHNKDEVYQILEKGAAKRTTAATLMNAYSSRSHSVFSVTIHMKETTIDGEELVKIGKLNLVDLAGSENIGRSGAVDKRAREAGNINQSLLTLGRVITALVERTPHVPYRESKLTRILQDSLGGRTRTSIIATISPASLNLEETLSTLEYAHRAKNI
Description: A recombinant human Eg5 motor domain protein was prepared by referring to the literature [Biochemistry, Vol. 35, p. 2365 (1996)]. A plasmid expressing the motor domain of human Eg5 was constructed, and transformed into Escherichia coli BL21 (DE3). The transformant was cultured at 25° C, and when the OD600 reached 0.74, isopropyl-β-D-thiogalactoside was added at a final concentration of 0.5 mmol/L. The transformant was further cultured for 4 hours, and then the culture medium was centrifuged to collect the cells. The cells were suspended in a buffer and ultrasonicated, and then the sonicated solution was centrifuged to recover the supernatant. The supernatant was purified by cation exchange column chromatography to obtain a partially purified sample. Furthermore, the partially purified sample was purified by gel filtration column chromatography to obtain a finally purified sample.
Measurement of the ATPase activity of Eg5 was carried out by referring to the literatures [EMBO Journal, Vol. 13, p. 751 (1994); Proc. Natl. Acad. Sci. USA, Vol. 89, p. 4884 (1992)]. The following two kinds of solutions were prepared: Solution A consisting of 25 mmol/L piperazine N,N′-bis(ethanesulfonate) (PIPES)/KOH (pH 6.8), 1 mmol/L ethylene glycol-bis(2-aminoethyl ether)tetraacetic acid (EGTA), 2 mmol/L MgCl2, 1 mmol/L dithiothreitol (DTT), 5 μmol/L paclitaxel, 167 μg/mL bovine serum albumin (BSA), 41.7 μg/mL tubulin (Cytoskeleton, Catalog No. TL238), 333 μmol/L MESG substrate (2-amino-6-mercapto-7-methylpurine riboside) (Molecular Probes, Catalog Number E-6646), 1.67 U/mL purine nucleoside phosphorylase (Molecular Probe, Catalog No. E-6646) and 1.33 μg/mL of the human Eg5 motor domain purified sample, and Solution B consisting of 25 mmol/L piperazine N,N′-bis(ethanesulfonate) (PIPES)/KOH (pH 6.8), 1 mmol/L ethylene glycol-bis(2-aminoethyl ether)tetraacetic acid (EGTA), 2 mmol/L MgCl2, 1 mmol/L dithiothreitol (DTT), 5 μmol/L paclitaxel and 2.5 mmol/L ATP. Solution A was dispensed into each well of a 96-well plate as 45 μL portions. Solution B was used to serially dilute a test compound. The diluted test compound solutions in a volume of 30 μL were mixed with Solution A added beforehand in each well of the 96-well plate to start the enzymatic reaction. The enzymatic reaction was performed at 30° C. for 30 minutes. Absorbance at 360 nm, which serves as an index of the ATPase activity, was measured using a plate reader (Molecular Device, SpectraMax 340PC^384). The absorbance observed in the presence of Eg5 and absence of the test compound was defined 100%, and the absorbance observed in the absence of both Eg5 and the test compound was defined 0%. The relative activity was calculated to calculate IC50 value.

[3] = HCT 116 cells, 72 hours incubation, XTT, 50% inhibition of cell proliferation, read-out: GI50

Row | IC50 [2] | GI50 [1, 3] | SMILES | GI50 ([1]; HCT-116, 72 h)
1 | ≤ 10000 nM | 170 nM | CC(=O)N1N=C(c2cccn2C(=O)OC(C)(C)C)SC1(C)c1ccccc1 (stereo not drawn) [Compound 5] | 
2 | ≤ 10000 nM | 180 nM | CC(=O)N1N=C(c2ccccc2)SC1(CNS(C)(=O)=O)c1ccccc1 (stereo not drawn) [Compound 10] | 
3 | ≤ 10000 nM | 200 nM | CC(=O)N1N=C(C#CC(C)(C)C)SC1(CNS(C)(=O)=O)c1ccccc1 (stereo not drawn) [Compound 20] | 
4 | ≤ 10000 nM | 83 nM | CC(=O)N1N=C(c2ccccc2F)SC1(C)c1ccccc1 (stereo not drawn) [Compound 22] | 
5 | ≤ 10000 nM | 220 nM | CC(=O)N1N=C(c2cccc(F)c2)SC1(C)c1ccccc1 (stereo not drawn) [Compound 24] | 
6 | ≤ 10000 nM | 410 nM | CC(=O)N1N=C(C(=O)NC(C)(C)C)SC1(C)c1ccccc1 (stereo not drawn) [Compound 44] | 
7 | ≤ 10000 nM | < 100 nM | CC(=O)N1N=C(c2ccccc2F)SC1(CNS(=O)(=O)CCN)c1ccccc1 (stereo not drawn) [Compound 49] | 
8 | ≤ 10000 nM | < 100 nM | CC(=O)N1N=C(c2ccccc2F)SC1(CNC(=O)CN)c1ccccc1 (stereo not drawn) [Compound 55] | 
9 | ≤ 10000 nM | < 100 nM | CC(=O)N1N=C(c2ccccc2F)SC1(CCNC(=O)CCCN(C)C)c1ccccc1 (stereo not drawn) [Compound 61] | 
10 | ≤ 10000 nM | 160 nM | CC(=O)N1N=C(c2ccccc2F)SC1(CCCN1CCN(C)CC1)c1ccccc1 (stereo not drawn) [Compound 62] | 
11 | ≤ 10000 nM | 190 nM | CC(=O)N1N=C(C(=O)NC(C)(C)C)SC1(CNS(=O)(=O)CCN(C)C)c1ccccc1 (stereo not drawn) [Compound 68] | 

Row | SMILES | IC50 [2] | GI50 [1, 3] | GI50 ([1]; HCT-116, 72 h)
12 | CC(=O)N1N=C(c2ccco2)SC1(C)c1ccccc1 (stereo not drawn) [Compound 1] | ≤ 10000 nM |  | 530 nM

Source: patent US20070112044A1, “Thiadiazoline derivative” (Kyowa Hakko Kogyo Co., Ltd., priority 2003, published 2007)
